# Data taken from PubChem BioAssay (NCI).
#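 All cell lines were grown in 96-well plates and treated with compound for 48 hours. GI50 is the concentration that inhibits growth by half. At the TGI there is no net growth.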
# Experiments:
# Experiment in all cases: NCI-60 cell line screen, 48 h
# [1] = tested on: BT-549 breast
# [2] = tested on: SK-MEL-5 melanoma
# [3] = tested on: SN12C renal
# [4] = tested on: A498 renal
# [5] = tested on: OVCAR-3 ovarian
# [6] = tested on: EKVX NSCLC
# [7] = tested on: SK-OV-3 ovarian
# [8] = tested on: SK-MEL-28 melanoma
# [9] = tested on: HOP-92 NSCLC
# [10] = tested on: PC-3 prostate
Structure (SMILES),GI50 [1],TGI [1],GI50 [2],TGI [2],GI50 [3],TGI [3],GI50 [4],TGI [4],GI50 [5],TGI [5],GI50 [6],TGI [6],GI50 [7],TGI [7],GI50 [8],TGI [8],GI50 [9],TGI [9],GI50 [10],TGI [10]
O=C(COc1cccc(/C=C2\Oc3ccc4ccccc4c3C2=O)c1)c1ccc(Cl)cc1,20.5 µM,61.7 µM,79.2 µM,> 100 µM,16.8 µM,37.5 µM,> 100 µM,> 100 µM,19.8 µM,48.6 µM,> 100 µM,> 100 µM,> 100 µM,> 100 µM,> 100 µM,> 100 µM,> 100 µM,> 100 µM,52.1 µM,> 100 µM
N#C/C(=C\c1c(-c2ccccc2)[nH]c2ccccc12)C(=O)c1ccccc1,3 µM,> 100 µM,,,5.66 µM,> 100 µM,15.3 µM,> 100 µM,2.43 µM,5.75 µM,9.97 µM,> 100 µM,15.2 µM,> 100 µM,12 µM,> 100 µM,4.51 µM,28.7 µM,3.46 µM,> 100 µM
COc1cccc(CCC(=O)c2cc3c(N)c(C(=O)Nc4cccc(Cl)c4C)sc3nc2C)c1,0.951 µM,99.6 µM,0.65 µM,11 µM,0.667 µM,> 100 µM,0.248 µM,2.47 µM,0.37 µM,2.78 µM,0.998 µM,> 100 µM,1.53 µM,> 75.6 µM,0.981 µM,> 100 µM,0.753 µM,> 100 µM,0.746 µM,> 100 µM
Clc1ccc(CNc2nccc(-c3cnn4ncccc34)n2)cc1,6.4 µM,14.7 µM,5.4 µM,> 25 µM,7.54 µM,> 25 µM,5.07 µM,10.4 µM,7.32 µM,21.6 µM,5.54 µM,> 19.9 µM,11.8 µM,> 25 µM,5.64 µM,17.5 µM,,,6.76 µM,> 24 µM
COc1cc2c3c(n(CCCBr)c(=O)c2cc1OC)-c1ccc(F)cc1C3=O,13.9 µM,49.7 µM,10.9 µM,24.1 µM,15.6 µM,> 100 µM,14.8 µM,40.9 µM,24.6 µM,99.6 µM,49.5 µM,> 100 µM,15.8 µM,59 µM,39.8 µM,> 100 µM,4.07 µM,28.4 µM,45.8 µM,> 100 µM
CCC1(NC(=O)c2cc(F)c(F)c(F)c2F)C(=O)NC(=O)N(C(C)C)C1=O (stereo unspecified),20 µM,44.1 µM,16.8 µM,33 µM,26.4 µM,> 100 µM,23.5 µM,53 µM,23.9 µM,53.1 µM,24.6 µM,97 µM,23.2 µM,51.1 µM,14.5 µM,45 µM,17.4 µM,63.7 µM,21.6 µM,63.6 µM
